Reference: patent publication US10479794B2, “Cyclic ether derivatives of pyrazolo[1,5-a]pyrimidine-3-carboxyamide” (Boehringer Ingelheim International GmbH, priority 2015, dated 2019)

Tested on: human MDR1 P-gp
Assay: Assessment of efflux in MDCK cells transfected with the human MDR1 gene (MDCK assay)
Type: in vitro ADME, canine
Conditions: dog; for efflux ratio at 2 h: MDCK-MDR1, pH 7.4, MDCK-MDR1, Papp (b-a) divided by Papp (a-b); for Papp A→B at 2 h: MDCK-MDR1, pH 7.4, MDCK-MDR1 monolayers, apical-to-basal, pH 7.4, 37° C.
Protocol: Assessment of Efflux in Madin-Darby Canine Kidney Cells Transfected with the Human MDR1 Gene (MDCK Assay)
Apparent permeability coefficients (PE) of the compounds across the MDCK-MDR1 cell monolayers are measured (pH 7.4, 37° C.) in apical-to-basal (AB) and basal-to-apical (BA) transport direction. AB permeability (PEAB) represents drug absorption from the blood into the brain and BA permeability (PEBA) drug efflux from the brain back into the blood via both passive permeability as well as active transport mechanisms mediated by efflux and uptake transporters that are expressed on the MDCK-MDR1 cells, predominantly by the overexpressed human MDR1 P-gp. The compounds are assigned to permeability/absorption classes by comparison of the AB permeabilities with the AB permeabilities of reference compounds with known in vitro permeability and oral absorption in the human. Identical or similar permeabilities in both transport directions indicate passive permeation, vectorial permeability points to additional active transport mechanisms. Higher PEBA than PEAB indicates the involvement of active efflux mediated by MDR1 P-gp. Active transport is concentration-dependently saturable.
MDCK-MDR1 cells (1-2×10e5 cells/1 cm2 area) are seeded on filter inserts (Costar transwell polycarbonate or PET filters, 0.4 μm pore size) and cultured (DMEM) for 7 days. Subsequently, the MDR1 expression is boosted by culturing the cells with 5 mM sodium butyrate in full medium for 2 days. Compounds are dissolved in appropriate solvent (like DMSO, 1-20 mM stock solutions). […] The transport solution (TL) is applied to the apical or basolateral donor side for measuring A-B or B-A permeability (3 filter replicates), respectively. The receiver side contains the same buffer as the donor side. Samples are collected at the start and end of experiment from the donor and at various time intervals for up to 2 hours also from the receiver side for concentration measurement by HPLC-MS/MS or scintillation counting. Sampled receiver volumes are replaced with fresh receiver solution. Efflux ratio is calculated dividing the Papp (b-a) values by the Papp (a-b) values.

Structure (SMILES) | efflux ratio at 2 h | Papp A→B at 2 h [×10⁻⁶ cm/s]
Cc1nn2cc(C3CC3)cnc2c1C(=O)NC1(c2ncc(C(F)(F)F)cc2F)CCOCC1 [Example 17] | 0.6 | 85
Cc1cnc2c(C(=O)NC3(c4ccc(C(F)(F)F)cc4F)CCOCC3(C)O)cnn2c1 (single isomer, unassigned) [Example 83a] |  | 34
Cc1cnc2c(C(=O)NC3(c4ccc(C(F)(F)F)cc4F)CCOCC3O)cnn2c1 (racemic) [Example 46] |  | 60
O=C(NC1(c2ccc(C(F)(F)F)cc2F)COCC1O)c1cnn2cc(C3CC3)cnc12 (single isomer, unassigned) [Example 69] | 1.3 | 25
Cc1cnc2c(C(=O)NC3(c4ccc(C(F)(F)F)cc4F)CCOCC3)cnn2c1 [Example 2] | 0.6 | 84
O=C(NC1(c2ccc(C(F)(F)F)cc2)CCOC1)c1cnn2cc(C3CC3)cnc12 (racemic) [Example 37] | 0.5 | 86
CC1(O)COCCC1(NC(=O)c1cnn2cc(C3CC3)cnc12)c1ccc(C(F)(F)F)cc1F (racemic) [Example 53] |  | 15
O=C(NC1(c2ccc(C(F)(F)F)cc2F)CCOCC1O)c1cnn2cc(C3CC3)cnc12 (single isomer, unassigned) [Example 82a] | 1 | 59

Continued, values first:

efflux ratio at 2 h | Papp A→B at 2 h [×10⁻⁶ cm/s] | Structure (SMILES)
0.6 | 94 | Cc1nn2cc(C3CC3)cnc2c1C(=O)NC1(c2ccc(C(F)(F)F)cn2)CCOCC1 [Example 21]
 | 60 | Cc1cnc2c(C(=O)NC3(c4ccc(C(F)(F)F)cc4F)CCOCC3O)cnn2c1 (single isomer, unassigned) [Example 81a]
 | 11 | Cc1nn2cc(C3CC3)cnc2c1C(=O)NC1(c2ccc(C(F)(F)F)nc2)CCOCC1O (racemic) [Example 51]
0.7 | 97 | O=C(NC1(c2ccc(C(F)(F)F)cc2F)CCOCC1)c1cnn2cc(F)cnc12 [Example 3]
0.8 | 100 | Cc1nn2cc(C3CC3)cnc2c1C(=O)NC1(c2ccc(C(F)(F)F)nc2)CCOCC1 [Example 25]
